# Laboratory results reported in US7148204B2, “Antisense modulation of bcl-x expression” (Isis Pharmaceuticala, Inc., priority 1998, dated 2006).
# In the oligonucleotide strings, read from the 5' end, every base follows the letter of its sugar. An asterisk marks phosphorothioate; unmarked linkages are phosphodiester. Other units and linkages are bracketed, terminal groups are in braces. A string of capitals states the bases alone. e = 2'-O-(2-methoxyethyl) (MOE); [5mC] = 5-methylcytosine; d = 2'-deoxy (DNA)
# How the values were obtained:
# Type in all cases: cell-based, human
# bcl-xl mRNA = assay: RNase protection assay, bcl-xl mRNA in A549 cells; details: RPA
# Excerpt: (§1) The ribonuclease (RNase) protection assay is a sensitive and specific method for quantitating expression levels (Zinn, et al., Cell, 1983, 34:865–79). The method is based on the hybridization of a target RNA to an in vitro transcribed ^32P-labeled anti-sense RNA probe from a DNA template. RNase treatment follows, resulting in degradation of single-stranded RNA and excess probe. The probe and target RNA are resolved by denaturing polyacrylamide gel electrophoresis with the “protected” probe visualized using autoradiography or beta imaging equipment. Template sets can be purchased (PharMingen Inc., San Diego Calif.) which contain a series of biologically relevant templates, each of distinct length and each representing a sequence in a distinct mRNA species. Each template set is capable of detecting up to 11 unique gene messages in a single reaction mix in addition to one or more housekeeping genes, L32 and GAPDH, which serve as internal controls. These template sets allow for multiple determinations to be made from a single sample. Multi-probe RPA can be performed on total RNA preparations derived by standard methods, without further purification of poly-A+ RNA.
# (§2) Oligonucleotides were evaluated for their respective effects on bcl-xs and bcl-xl mRNA levels along with total bcl-x mRNA levels, using the RIBOQUANT™ RNase protection kit (Pharmingen, San Diego Calif.). All assays were performed according to manufacturer's protocols. Briefly, multi-probe DNA template sets were used to generate antisense RNA transcripts radiolabeled with […]. The template set used for apoptosis genes was the human hAPO-2 set. These radiolabeled probes were hybridized overnight with typically 10 μg of total cellular RNA. The reaction mixture was then digested with single-strand RNases to generate the protected fragments which were electrophoresed through a 5% acrylamide/urea gel. Protected bands were visualized and quantitated using a PhosphorImager (Molecular Dynamics, Sunnyvale Calif.).
# (§3) Human bcl-x has two forms, a long form known as bcl-xl and a short form known as bcl-xs. […] The protein of bcl-xl is similar in size and structure to bcl-2, and could inhibit cell death upon growth factor withdrawal. The protein of bcl-xs is 63 amino acids shorter than bcl-xl. It could inhibit the bcl-2 function, thus promoting programmed cell death (apoptosis). Oligonucleotides were evaluated for their respective effects on bcl-xs and bcl-xl mRNA levels along with total bcl-x mRNA levels, using the RIBOQUANT™ RNase protection kit (Pharmingen, San Diego Calif.). All assays were performed according to manufacturer's protocols.
# (§4) These oligonucleotides were tested for their inhibitory effects on bcl-xl and bcl-xs mRNA levels in A549 cells, as detected by RPA analysis. Oligonucleotide concentration was 200 nM.
# total bcl-x mRNA = assay: RNase protection assay, total bcl-x mRNA in A549 cells; set-up: % CONTROL total bcl-x: concentration or dose not given beside the values; details: RPA
# Excerpt: as §1, §2, §3
# bcl-xs mRNA = assay: RNase protection assay, bcl-xs mRNA in A549 cells; set-up: concentration or dose not given beside the values; details: RPA
# Excerpt: as §1, §2, §3
# bcl-xs/bcl-xl mRNA ratio = assay: RNase protection assay, bcl-xs/bcl-xl mRNA ratio in A549 cells; details: A549 cells, RPA; for bcl-xs/bcl-xl (%): no oligo 17.56; for bcl-xs/bcl-xl* (change from the control ratio 17.56) / bcl-xs/bcl-xl Fold difference: no oligo = 1; for bcl-xs/bcl-xl Fold difference: 200 nM
# Excerpt: as §1, §2, §3, §4
# [1] = test system: bcl-xs/bcl-xl transcript ratio; assay: PNA analogs, bcl-x splicing in electroporated HeLa cells; details: electroporation
# Excerpt: A peptide-nucleic acid (PNA) oligonucleotide having the ISIS 22783 sequence (SEQ ID NO: 33) was synthesized as described in Example 4 hereinabove. The oligonucleotide (ISIS 32262) was uniformly modified with a PNA backbone throughout. A 5-base mismatch compound (ISIS 32263, SEQ ID NO: 52) was also synthesized as a full PNA. HeLa cells were transfected with these compounds by electroporation with a 200V pulse using a BTX Electro Cell Manipulator 600 (Genetronics, San Diego Calif.) and RNA was isolated 24 hours later.
substance,measurement,setting,value
16968 (antisense e[5mC]*eT*e[5mC]*e[5mC]*eG*dA*dT*dG*dT*dC*dC*dC*dC*dT*dC*eA*eA*eA*eG*eT) [compound 16968],% CONTROL bcl-xl,bcl-xl mRNA,15%
same,% CONTROL total bcl-x,total bcl-x mRNA,21%
same,% CONTROL bcl-xs,bcl-xs mRNA,20%
same,bcl-xs/bcl-xl (%),bcl-xs/bcl-xl mRNA ratio,20.18%
same,bcl-xs/bcl-xl* (change from the control ratio 17.56),bcl-xs/bcl-xl mRNA ratio,1.15
16972 (antisense eT*e[5mC]*eA*e[5mC]*eG*dT*dT*dG*dG*dC*dG*dC*dT*dT*dA*eG*e[5mC]*e[5mC]*eA*eT) [compound 16972],% CONTROL bcl-xl,bcl-xl mRNA,91%
same,% CONTROL total bcl-x,total bcl-x mRNA,87%
same,% CONTROL bcl-xs,bcl-xs mRNA,60%
same,bcl-xs/bcl-xl (%),bcl-xs/bcl-xl mRNA ratio,11.68%
same,bcl-xs/bcl-xl* (change from the control ratio 17.56),bcl-xs/bcl-xl mRNA ratio,0.67
22782 (antisense e[5mC]*eA*eA*eA*eA*eG*eT*eA*eT*e[5mC]*e[5mC]*e[5mC]*eA*eG*e[5mC]*e[5mC]*eG*e[5mC]*e[5mC]*eG) [compound 22782],% CONTROL bcl-xl,bcl-xl mRNA,76%
same,% CONTROL total bcl-x,total bcl-x mRNA,75%
same,% CONTROL bcl-xs,bcl-xs mRNA,64%
same,bcl-xs/bcl-xl (%),bcl-xs/bcl-xl mRNA ratio,15.72%
same,bcl-xs/bcl-xl* (change from the control ratio 17.56),bcl-xs/bcl-xl mRNA ratio,0.89
22783 (antisense e[5mC]*eT*eG*eG*eA*eT*e[5mC]*e[5mC]*eA*eA*eG*eG*e[5mC]*eT*e[5mC]*eT*eA*eG*eG*eT) [compound 22783],% CONTROL bcl-xl,bcl-xl mRNA,35%
same,% CONTROL bcl-xl,bcl-xl mRNA; 200 nM,39%
same,% CONTROL total bcl-x,total bcl-x mRNA,120%
same,% CONTROL bcl-xs,bcl-xs mRNA,620%
same,bcl-xs/bcl-xl Fold difference,bcl-xs/bcl-xl mRNA ratio,18 fold
same,bcl-xs/bcl-xl (%),bcl-xs/bcl-xl mRNA ratio,293.10%
same,bcl-xs/bcl-xl* (change from the control ratio 17.56),bcl-xs/bcl-xl mRNA ratio,16.69
22784 (antisense e[5mC]*e[5mC]*eA*eG*e[5mC]*e[5mC]*eG*e[5mC]*e[5mC]*eG*eT*eT*e[5mC]*eT*e[5mC]*e[5mC]*eT*eG*eG*eA) [compound 22784],% CONTROL bcl-xl,bcl-xl mRNA,72%
same,% CONTROL total bcl-x,total bcl-x mRNA,92%
same,% CONTROL bcl-xs,bcl-xs mRNA,204%
same,bcl-xs/bcl-xl (%),bcl-xs/bcl-xl mRNA ratio,48.63%
same,bcl-xs/bcl-xl* (change from the control ratio 17.56),bcl-xs/bcl-xl mRNA ratio,2.77
22785 (antisense eG*e[5mC]*e[5mC]*eG*e[5mC]*e[5mC]*eG*eT*eT*e[5mC]*eT*e[5mC]*e[5mC]*eT*eG*eG*eA*eT*e[5mC]*e[5mC]) [compound 22785],% CONTROL bcl-xl,bcl-xl mRNA,53%
same,% CONTROL total bcl-x,total bcl-x mRNA,83%
same,% CONTROL bcl-xs,bcl-xs mRNA,248%
same,bcl-xs/bcl-xl (%),bcl-xs/bcl-xl mRNA ratio,80.14%
same,bcl-xs/bcl-xl* (change from the control ratio 17.56),bcl-xs/bcl-xl mRNA ratio,4.56
23172 (antisense eG*eT*eT*e[5mC]*e[5mC]*eT*eG*eG*e[5mC]*e[5mC]*e[5mC]*eT*eT*eT*e[5mC]*eG*eG*e[5mC]*eT*e[5mC]) [compound 23172],% CONTROL bcl-xl,bcl-xl mRNA,77%
same,% CONTROL total bcl-x,total bcl-x mRNA,79%
same,% CONTROL bcl-xs,bcl-xs mRNA,84%
same,bcl-xs/bcl-xl (%),bcl-xs/bcl-xl mRNA ratio,19.38%
same,bcl-xs/bcl-xl* (change from the control ratio 17.56),bcl-xs/bcl-xl mRNA ratio,1.10
"26066 (antisense ATCCAAGGCTCTAGGTGGTC; all 2'-MOE, all phosphorothioate, methylation of C not given here) [compound 26066]",% CONTROL bcl-xl,bcl-xl mRNA; 200 nM,24%
same,bcl-xs/bcl-xl Fold difference,bcl-xs/bcl-xl mRNA ratio,37 fold
"26080 (antisense CTGGTTACACGACTCCAGGT; all 2'-MOE, all phosphorothioate, methylation of C not given here) [compound 26080]",% CONTROL bcl-xl,bcl-xl mRNA; 200 nM,77%
same,bcl-xs/bcl-xl Fold difference,bcl-xs/bcl-xl mRNA ratio,2 fold
"105751 (antisense TGGTTCTTACCCAGCCGCCG; all 2'-MOE, all phosphorothioate, methylation of C not given here) [compound 105751]",% CONTROL bcl-xl,bcl-xl mRNA; 200 nM,34%
same,bcl-xs/bcl-xl Fold difference,bcl-xs/bcl-xl mRNA ratio,45 fold
"106249 (antisense CTCTAGGTGGTCATTCAGGT; all 2'-MOE, all phosphorothioate, methylation of C not given here) [compound 106249]",% CONTROL bcl-xl,bcl-xl mRNA; 200 nM,47%
same,bcl-xs/bcl-xl Fold difference,bcl-xs/bcl-xl mRNA ratio,23 fold
"106250 (antisense CTAGGTGGTCATTCAGGTAA; all 2'-MOE, all phosphorothioate, methylation of C not given here) [compound 106250]",% CONTROL bcl-xl,bcl-xl mRNA; 200 nM,40%
same,bcl-xs/bcl-xl Fold difference,bcl-xs/bcl-xl mRNA ratio,21 fold
"106251 (antisense AGGTGGTCATTCAGGTAAGT; all 2'-MOE, all phosphorothioate, methylation of C not given here) [compound 106251]",% CONTROL bcl-xl,bcl-xl mRNA; 200 nM,57%
same,bcl-xs/bcl-xl Fold difference,bcl-xs/bcl-xl mRNA ratio,25 fold
"106252 (antisense GTGGTCATTCAGGTAAGTGG; all 2'-MOE, all phosphorothioate, methylation of C not given here) [compound 106252]",% CONTROL bcl-xl,bcl-xl mRNA; 200 nM,72%
same,bcl-xs/bcl-xl Fold difference,bcl-xs/bcl-xl mRNA ratio,23 fold
"106253 (antisense GGTCATTCAGGTAAGTGGCC; all 2'-MOE, all phosphorothioate, methylation of C not given here) [compound 106253]",% CONTROL bcl-xl,bcl-xl mRNA; 200 nM,48%
same,bcl-xs/bcl-xl Fold difference,bcl-xs/bcl-xl mRNA ratio,19 fold
"106254 (antisense TCATTCAGGTAAGTGGCCAT; all 2'-MOE, all phosphorothioate, methylation of C not given here) [compound 106254]",% CONTROL bcl-xl,bcl-xl mRNA; 200 nM,80%
same,bcl-xs/bcl-xl Fold difference,bcl-xs/bcl-xl mRNA ratio,13 fold
"106255 (antisense ATTCAGGTAAGTGGCCATCC; all 2'-MOE, all phosphorothioate, methylation of C not given here) [compound 106255]",% CONTROL bcl-xl,bcl-xl mRNA; 200 nM,64%
same,bcl-xs/bcl-xl Fold difference,bcl-xs/bcl-xl mRNA ratio,17 fold
"106256 (antisense TCAGGTAAGTGGCCATCCAA; all 2'-MOE, all phosphorothioate, methylation of C not given here) [compound 106256]",% CONTROL bcl-xl,bcl-xl mRNA; 200 nM,82%
same,bcl-xs/bcl-xl Fold difference,bcl-xs/bcl-xl mRNA ratio,15 fold
"106257 (antisense AGGTAAGTGGCCATCCAAGC; all 2'-MOE, all phosphorothioate, methylation of C not given here) [compound 106257]",% CONTROL bcl-xl,bcl-xl mRNA; 200 nM,78%
same,bcl-xs/bcl-xl Fold difference,bcl-xs/bcl-xl mRNA ratio,13 fold
"106258 (antisense GTAAGTGGCCATCCAAGCTG; all 2'-MOE, all phosphorothioate, methylation of C not given here) [compound 106258]",% CONTROL bcl-xl,bcl-xl mRNA; 200 nM,66%
same,bcl-xs/bcl-xl Fold difference,bcl-xs/bcl-xl mRNA ratio,21 fold
"106259 (antisense AAGTGGCCATCCAAGCTGCG; all 2'-MOE, all phosphorothioate, methylation of C not given here) [compound 106259]",% CONTROL bcl-xl,bcl-xl mRNA; 200 nM,96%
same,bcl-xs/bcl-xl Fold difference,bcl-xs/bcl-xl mRNA ratio,15 fold
"106260 (antisense GTGGCCATCCAAGCTGCGAT; all 2'-MOE, all phosphorothioate, methylation of C not given here) [compound 106260]",% CONTROL bcl-xl,bcl-xl mRNA; 200 nM,66%
same,bcl-xs/bcl-xl Fold difference,bcl-xs/bcl-xl mRNA ratio,12 fold
"ISIS 32262: PNA oligonucleotide having the ISIS 22783 sequence (SEQ ID NO: 33), PNA backbone throughout (CTGGATCCAAGGCTCTAGGT; all peptide nucleic acid (PNA))",Ratio (approx.) of bcl-xs/bcl-xl,[1]; 2 μM,~2.0
same,Ratio (approx.) of bcl-xs/bcl-xl,[1]; 5 μM,~3.5
same,Ratio (approx.) of bcl-xs/bcl-xl,[1]; 10 μM,~6.5
same,Ratio (approx.) of bcl-xs/bcl-xl,[1]; 15 μM,~7.75
same,Ratio (approx.) of bcl-xs/bcl-xl,[1]; 25 μM,~11.5
same,Ratio (approx.) of bcl-xs/bcl-xl,"[1]; RNA 24 hours later, 1 μM",~1.5
"ISIS 32263: 5-base mismatch compound, SEQ ID NO: 52, full PNA (CTGGTTACACGACTCCAGGT; all peptide nucleic acid (PNA)) [reference compound]",Ratio (approx.) of bcl-xs/bcl-xl,[1]; 2 μM,~0.75
same,Ratio (approx.) of bcl-xs/bcl-xl,[1]; 5 μM,~0.75
same,Ratio (approx.) of bcl-xs/bcl-xl,[1]; 10 μM,~1.0
same,Ratio (approx.) of bcl-xs/bcl-xl,[1]; 15 μM,~0.75
same,Ratio (approx.) of bcl-xs/bcl-xl,[1]; 25 μM,~1.0
same,Ratio (approx.) of bcl-xs/bcl-xl,"[1]; RNA 24 hours later, 1 μM",~1.5
